We go through 10 compounds from patent US20260272924A1, “ISOINDOLINE DERIVATIVE, BENZOINDOLE DERIVATIVE AND USE THEREOF” (SHANGHAI HELIOSON PHARMACEUTICAL CO., LTD., priority 2023, published 2026).

As a reminder, the pIC50 is the negative decadic logarithm of the IC50, by convention in mol/L. Read a high pIC50 as a small IC50.

pIC50: −log10 of the molar value.

This assay relates to NCI-H929 multiple myeloma cells. As to the kind of experiment: Cell Titer-GLO (CTG) assay for proliferation of NCI-H929 cells. Conditions: Homo sapiens, 72 hours. It is filed as cell-based. As for the experimental part:
1. Experimental objective: To determine inhibitory activities of compounds on NCI-H929 multiple myeloma cells.
NCI-H929 cells, purchased from Nanjing Cobioer Biotechnology Co., Ltd, were cultured in RPM11640 (Viva; C3010-0500) medium containing 10% fetal bovine serum (Viva, C04002-500) and 1% of penicillin-streptomycin at 37° C. with 5% of C02 and saturated humidity conditions.
The cells in logarithmic growth phase were plated at 5000 cells per well of a 96-well plate and after overnight incubation, compounds at 0.00512 nM, 0.0256 nM, 0.128 nM, 0.64 nM, 3.2 nM, 16 nM, 80 nM, and 400 nM were dosed into the plate with each dose in 2 duplicate wells. Cells were incubated at 37° C., 5% CO2 for 72 hours. After the incubation, the plate was placed at room temperature for half an hour, and then 50 μL of Cell Titer-Glo® (Promega, G7573) was added. The plate was placed on a shaker for uniform mixing for 2 minutes and was placed in the dark at room temperature for 10 minutes. The luminance signal was measured using SpectraMax Paradigm (Molecular Devices).
Cell activity inhibition rate (%)=1 00−(RLUcompound−RLUblank)/(RLUcontrol−RLUblank)×100%, where control refers to the 0.1% DMSO treatment group, and blank refers to the culture medium control. IC50 values and maximum inhibition rates of the compounds were calculated using a nonlinear regression function “Dose-Response-Inhibition” in Graphpad Prism 7.0.
Consider `Cc1nnc(-c2cccc(N3CCN(Cc4ccc(Cc5ccc6c7c(cccc57)C(=O)N6[C@H]5CCC(=O)NC5=O)cc4)CC3)n2)s1` [Example 35, (S)-3-(6-(4-((4-(6-(5-methyl-1,3,4-thiadiazol-2-yl)pyridin-2-yl)piperazin-1-yl)methyl)benzyl)-2-oxobenzo[cd]indol-1(2H)-yl)piperidin-2,6-dione], for which the negative logarithm of the IC50 (pIC50) was 11.00.
Next, `Cc1nnc(-c2cccc(N3CCN(Cc4ccc(Cc5ccc6c7c(cccc57)C(=O)N6[C@@H]5CCC(=O)NC5=O)cc4)CC3)n2)s1` [Example 36, (R)-3-(6-(4-((4-(6-(5-methyl-1,3,4-thiadiazol-2-yl)pyridin-2-yl)piperazin-1-yl)methyl)benzyl)-2-oxobenzo[cd]indol-1(2H)-yl)piperidin-2,6-dione]: 10.70; `Cc1ncn(-c2cccc(N3CCN(Cc4ccc(Cc5ccc6c7c(cccc57)C(=O)N6[C@@H]5CCC(=O)NC5=O)cc4)CC3)n2)n1` [Example 38, (R)-3-(6-(4-((4-(6-(3-methyl-1H-1,2,4-triazol-1-yl)pyridin-2-yl)piperazin-1-yl)methyl)benzyl)-2-oxobenzo[cd]indol-1(2H)-yl)piperidin-2,6-dione]: 10.52; `O=C1CCC(N2C(=O)c3cccc4c(Cc5ccc(CN6CCN(c7ccnc(-n8cnc(C(F)(F)F)n8)n7)CC6)cc5)ccc2c34)C(=O)N1` (stereo not shown) [Example 39, 3-(2-oxo-6-(4-((4-(2-(3-(trifluoromethyl)-1H-1,2,4-triazol-1-yl)pyrimidin-4-yl)piperazin-1-yl)methyl)benzyl)benzo[cd]indol-1(2H)-yl)piperidin-2,6-dione]: 11.00.
In the case of `O=C1CCC(N2C(=O)c3cccc4c(Cc5ccc(CN6CCN(C7CCN(c8ccnc(-n9cnc(C(F)(F)F)c9)n8)CC7)CC6)cc5)ccc2c34)C(=O)N1` (stereo not shown) [Example 40, 3-(2-oxo-6-(4-((4-(1-(2-(4-(trifluoromethyl)-1H-imidazol-1-yl)pyrimidin-4-yl)piperidin-4-yl)piperazin-1-yl)methyl)benzyl)benzo[cd]indol-1(2H)-yl)piperidin-2,6-dione] it was 11.00.
Next, `Cc1ncn(-c2nccc(N3CCN(Cc4ccc(Cc5ccc6c7c(cccc57)C(=O)N6C5CCC(=O)NC5=O)cc4)CC3)n2)n1` (stereo not shown) [Example 41, 3-(6-(4-((4-(2-(3-methyl-1H-1,2,4-triazol-1-yl)pyrimidin-4-yl)piperazin-1-yl)methyl)benzyl)-2-oxobenzo[cd]indol-1(2H)-yl)piperidin-2,6-dione]: 11.22.
Regarding `Cc1nnc(-c2ncc(F)c(N3CCN(Cc4ccc(Cc5ccc6c7c(cccc57)C(=O)N6C5CCC(=O)NC5=O)cc4)CC3)n2)s1` (stereo not shown) [Example 42, 3-(6-(4-((4-(5-fluoro-2-(5-methyl-1,3,4-thiadiazol-2-yl)pyrimidin-4-yl)piperazin-1-yl)methyl)benzyl)-2-oxobenzo[cd]indol-1(2H)-yl)piperidin-2,6-dione], the negative-log IC50 (pIC50) was 11.00.
`O=C1CCC(N2C(=O)c3cccc4c(Cc5ccc(CN6CCN(c7ccnc(-n8cnc(Cl)c8)n7)CC6)cc5)ccc2c34)C(=O)N1` (stereo not shown) [Example 43, 3-(6-(4-((4-(2-(4-chloro-1H-imidazol-1-yl)pyrimidin-4-yl)piperazin-1-yl)methyl)benzyl)-2-oxobenzo[cd]indol-1(2H)-yl)piperidin-2,6-dione] showed a negative logarithm of the IC50 (pIC50) of 10.70.
In the case of `N#Cc1cn(-c2nccc(N3CCN(Cc4ccc(Cc5ccc6c7c(cccc57)C(=O)N6C5CCC(=O)NC5=O)cc4)CC3)n2)cn1` (stereo not shown) [Example 44, 3-(6-(4-((4-(2-(4-cvano-1H-imidazol-1-yl)pyrimidin-4-yl)piperazin-1-yl)methyl)benzyl)-2-oxobenzo[cd]indol-1(2H)-yl)piperidin-2,6-dione] it was 11.00.
In the case of `Cc1ncn(-c2ncc(Cl)c(N3CCN(Cc4ccc(Cc5ccc6c7c(cccc57)C(=O)N6C5CCC(=O)NC5=O)cc4)CC3)n2)n1` (stereo not shown) [Example 45, 3-(6-(4-((4-(5-chloro-2-(3-methyl-1H-1,2,4-triazol-1-yl)pyrimidin-4-yl)piperazin-1-yl)methyl)benzyl)-2-oxobenzo[cd]indol-1(2H)-yl)piperidin-2,6-dione] it was 11.00.
